Source: patent US9598362B2, “Benzidine derivative, method for preparing same, and pharmaceutical composition containing benzidine derivative for treating liver disease caused by hepatitis C virus” (priority 2013, dated 2017)
Where two headings read alike, the source gives them in different places.

Assay: Evaluation of physiological activity: pharmacokinetics after oral or intravenous administration
Type: in vivo
Conditions: male mouse, 5 mg/kg; for AUC(0-inf): read-out: AUC0-∞, value up to infinite time from the administration; for half-life: read-out: T1/2 (time) (converted)
Method: The following experiment was performed to evaluate physiological activity of the compound prepared in Example 16 by observing the pharmacokinetic changes.
Particularly, the compound of Example 16 was orally or intravenously administered to male mouse, followed by observation of the pharmacokinetic changes. For the oral administration, the compound of Example 16 was dissolved to make the concentration 2.5 mg/ml. The prepared compound solution was orally administered at the dose of 5 mg/kg, followed by drawing blood from the jugular vein of the mouse at regular intervals. For the intravenous administration, tubes were inserted in the jugular vein and the femoral vein of male mouse. The compound solution was intravenously injected through the femoral vein at the dose of 5 mg/kg, followed by drawing blood from the mouse at regular intervals. The drawed blood was centrifuged to separate plasma. The plasma and urine samples were pretreated with a proper organic solvent, followed by investigation by LC-MS/MS. At this time, LC-MS/MS was performed by using mass spectrometry (Agilent 6460 QQQ, Agilent), LC lamp (Agilent 1260, Agilent), autosampler (Agilent 1260, Agilent), and data analysis system (Peak Sample Data System, Analyst 1.4.2, Applied Biosystems), and the conditions for LC-MS/MS were as follows; sample injection amount: 10 μl, flow rate: 0.3 ml/min, column: […] C18 column (50 mm×2.0 mm, 12 nm, YMC), elution buffer: acetonitrile: 10 mM ammoniumformate buffer=90:10 (v/v), and MS/MS condition: MPM mode: HCV (m/z 761.8170.1), IS (imipramine, m/z 281.286.2). The blood concentration over the administration period of the compound treated via oral or intravenous administration was analyzed, from which the noncompartmental pharmacokinetic parameter was calculated by using WinNonlin (Pharsight, USA).

Q: For COC(=O)N[C@@H](C(=O)N1CCC[C@H]1C(=O)Nc1ccc(-c2ccc(NC(=O)[C@@H]3CCCN3C(=O)[C@H](NC(=O)OC)c3ccccc3)cc2)cc1)c1ccccc1 [Example 16, dimethyl(1S,1′S)-2,2′-((2S,2′S)-2,2′-(biphenyl-4,4′-diylbis(azandiyl))bis(oxomethylene)bis(pyrrolidine-2,1-diyl))bis(2-oxo-1-phenylethane-2,1-diyl)dicarbamate], which AUC0-t (intravenous injection) is on record?
A: The AUC0-t was 9160 ± 1030 ng·h/mL.

Q: What about the “AUC0-∞” value (intravenous injection) of the same molecule?
A: Its value is 9370 ± 1060 ng·h/mL.

Q: What about the AUC0-t (oral administration) of the same molecule?
A: Its AUC0-t is 1830 ± 565 ng·h/mL.

Q: And the “AUC0-∞” value (oral administration)?
A: Its value is 2500 ± 498 ng·h/mL.

Q: And the “Tmax (time)” value (oral administration)?
A: Its value is 2 ± 1.73 time.

Q: What about the Cmax (oral administration, plasma) of the same molecule?
A: The Cmax was 188 ng/mL.

Q: What about the AUC0-t (plasma, iv, intravenously injected, read-out: AUC0-24, value up to 24 hours from the administration) of the same molecule?
A: The AUC0-t was 9160 ng·h/mL.

Q: What about the AUC(0-inf) (plasma, iv, intravenously injected) of the same molecule?
A: Its AUC(0-inf) is 9370 ng·h/mL.

Q: And the bioavailability (plasma, po relative to iv, printed in the Intravenous Injection column, read-out: Ft, bioavailability)?
A: The bioavailability was 20%.

Q: What about the AUC0-t (plasma, po, orally administered, read-out: AUC0-24, value up to 24 hours from the administration) of the same molecule?
A: The AUC0-t was 1830 ng·h/mL.

Q: What about the AUC(0-inf) (plasma, po, orally administered) of the same molecule?
A: The AUC(0-inf) was 2500 ng·h/mL.

Q: What about the clearance (plasma, intravenous injection) of the same molecule?
A: The clearance was 8.97 mL/min/kg.

Q: And the half-life (plasma, intravenous injection)?
A: The half-life was 4.09 ± 3.06 h.

Q: And the Vd (plasma, intravenous injection, read-out: Vss)?
A: Its Vd is 1.31 ± 0.144 L/kg.

Q: And the half-life (plasma, oral administration)?
A: Its half-life is 15 ± 9.5 h.

Q: What about the Tmax (plasma, oral administration, read-out: time to reach the maximum concentration (Tmax)) of the same molecule?
A: Its Tmax is 2 h.
